Where two headings read alike, the source gives them in different places.
How the values were obtained:
[1] = tested on: Tobacco Mosaic Virus (TMV); experiment: Protection of tobacco against TMV infection by watering twice (Example 24); type: in vivo, Nicotiana tabacum cv. Xanthi; details: watered twice, 7 days after infection
Procedure: Tobacco plants (Nicotiana tabacum) cv. […] 3,5-dichlorosalicylate of choline; 4. 3-chlorosalicylate of sodium, 5. 3-chlorosalicylate of potassium, 6. 3-chlorosalicylate of calcium, 7. 3-chlorosalicylate of magnesium at a concentration of 10 or 40 or 80 mg/L, at one-week intervals. The control was tobacco plants watered only with water. One week after the second treatment of the plants with the preparation, mechanical infection of the leaves with Tobacco Mosaic Virus (TMV) was carried out. This consisted of rubbing carborundum-sprinkled leaves several times with fingers soaked in a suspension of purified virus at a concentration of about 2 μg/ml. In order to evaluate the effectiveness of the tested substances in protection against biotic stresses, the TMV model and tobacco cv. Xanthi characterized by an interaction in the form of hypersensitivity phenomenon, i.e. the formation of easily quantifiable necrotic spots, were used.

powdery mildew fungus [2] = type: in vivo, tomato; details: 80 mg/L, watered twice; 2 weeks after infection
Procedure: Tomato plants, at the stage of the first pair of developed true leaves, were watered twice with a solution of substance 1-32 at a concentration of 80 mg/L, at a weekly interval. The control was tomato plants watered only with water. […] The suspension was prepared from culture on solid medium. Protection against biotic stress was evaluated by comparing the area of leaves affected by infection.

powdery mildew fungus [3] = experiment: Protection of tomato against powdery mildew by spraying (Example 35); type: in vivo, Lycopersicon Esculentum Mill tomato; details: 40 mg/l, sprayed twice; 2 weeks after pathogen inoculation
Procedure: […] The control was tomato plants watered only with water. […] The suspension was prepared from culture on solid medium. Protection against biotic stress was evaluated by comparing the area of leaves affected by infection.
Proceeded in the way as described in Example 34, with the difference that plants were sprayed and not watered.

[4] = tested on: Pseudomonas syringae pv. Tomato (Pst); experiment: Protection of tomato against Pseudomonas syringae pv. Tomato by watering (Example 32); type: in vivo; details: 80 mg/L; watered twice; Pst 10^5; 2 weeks after infection
Procedure: Tomato plants, at the stage of the first pair of developed true leaves, were watered twice with a solution of substance 1-6 at a concentration of 80 mg/L, at a weekly interval. The control was tomato plants watered only with water. One week after the second treatment, a suspension of Pst bacteria at a concentration of 10^5 was spot-injected into the leaves using an insulin syringe (without a needle). The suspension was prepared from a two-day culture of Pst on solid medium. Protection against biotic stress was evaluated by the proliferation of bacteria in the leaves at the insertion site and the formation of a necrotic spot, compared to the control.

powdery mildew fungus [5] = experiment: Direct effect on fungal infectivity (Example 23); type: in vivo; details: tobacco plant, 5 days after infection with solution of fungus and test substance; control 100
Procedure: Proceeding as in Example 21, the test was performed on the powdery mildew fungus, which was then incubated on the medium.

winter wheat = tested on: winter wheat
Procedure: The experiment was established using the long strip method, in four repetitions Gross area of each plot was 48 m^2, while the harvest area was 23.25 m^2 net. Following variants of treatment were tested: • 1. Control—no stimulant application, standard fungicide programme • 2. Stimulant application at BBCH 32, standard fungicide programme • 3. Stimulant application at BBCH 32, no fungicide application • 4. Stimulant application at BBCH 55 and 10-12 days later, standard fungicide programme • 5. […] In this experiment, standard NPK fertilization was applied, using both bulk and liquid fertilizers.
The experiment was established using the long strip method, in four repetitions Gross area of each plot was 48 m2, while the harvest area was 23.25 m2 net. Following variants of treatment were tested: • 1. Control—no stimulant application, standard fungicide programme, • 2. Stimulant application at BBCH 32, standard fungicide programme • 3. Stimulant application at BBCH 32, no fungicide application • 4. Stimulant application at BBCH 55 and 10-12 days later, standard fungicide programme • 5. […] In the experiment, uniform NPK fertilization was applied, using both bulk and liquid fertilizers.

[6] = tested on: Pseudomonas syringae pv. Tomato; experiment: Direct effect on bacterial infectivity (Example 22); type: in vivo; details: tobacco plant, 5 days after infection with solution of bacteria and test substance; control 100
Procedure: Proceeding as in example 21, Pseudomonas syringae pv. Tomato bacteria were tested and incubated in bacterial medium.

[7] = tested on: tobacco mosaic virus (TMV); experiment: Direct effect on TMV infectivity: virus incubated with substance, then Xanthi tobacco leaves infected (Example 21); type: in vivo; details: TMV about 3 μg/ml mixed 1:1 with substance 80 mg/L, 30 min; 5 days after infection; control 100
Procedure: Sodium 3-chlorosalicylate; 5. Potassium 3-chlorosalicylate; 6. Calcium 3-chlorosalicylate; 7. Magnesium 3-chlorosalicylate (concentration 80 mg/L), in a 1:1 ratio and incubated for 30 min at room temperature. The control variant consisted of TMV incubated in water. All virus suspensions were used to mechanically infect Xanthi tobacco leaves, whose reaction to infection is manifested in easily quantifiable local necrotic spots (hypersensitivity, local infection).
After 5 days, the area of leaf covered by necrotic spots compared to total leaf area was calculated for plants of all variants of treatment.

[8] = BBCH 32, standard fungicide protection, 80 mg/L, benzothiadiazole salt 30 mg/L
[9] = BBCH 32, stimulant only, 80 mg/L, benzothiadiazole salt 30 mg/L
[10] = BBCH 55, standard fungicide protection, 80 mg/L, benzothiadiazole salt 30 mg/L
[11] = BBCH 55, without fungicide, 80 mg/L, benzothiadiazole salt 30 mg/L
[12] = first sampling date, 80 mg/L, benzothiadiazole salt 30 mg/L
[13] = last sampling date, late milk, 80 mg/L, benzothiadiazole salt 30 mg/L

For `C[N+](C)(C)CCO.O=C([O-])c1cccc(Cl)c1O` [choline 3-chlorosalicylate], the “% reduction in necrotic spots compared to control” value (from here on “% reduction in necrotic spots”) ([1]; 10 mg/L) was 80%, the “% reduction in necrotic spots” value ([1]; 40 mg/L) was 100% and the “% reduction in necrotic spots” value ([1]; 80 mg/L) was 100%. The “% reduction in necrotic spots” value (powdery mildew fungus [2]) was 95%, the “Reduction in necrotic spots (white patches) compared to control” value (powdery mildew fungus [3]) was 72% and the “% reduction in necrotic spots” value [4] was 92%. For the same compound, the “% of necrotic spots” value (powdery mildew fungus [5]) was 100%, the “increase in calcium uptake” value (winter wheat; [8]) was 4% and the “increase in gluten content of wheat grain” value (“increase in gluten content” below) (winter wheat; [8]) was 8%. For the same compound, the “increase in magnesium uptake” value (winter wheat; [8]) was 4%, the “increase in nitrogen uptake” value (winter wheat; [8]) was 7% and the “increase in phosphorus uptake” value (winter wheat; [8]) was 8%. The “increase in potassium uptake” value (winter wheat; [8]) was 6%, the “increase in protein content of wheat grain” value (“increase in protein content” below) (winter wheat; [8]) was 10% and the “increase in calcium uptake” value (winter wheat; [9]) was 6%. For the same compound, the “increase in gluten content” value (winter wheat; [9]) was 7%, the “increase in magnesium uptake” value (winter wheat; [9]) was 5% and the “increase in nitrogen uptake” value (winter wheat; [9]) was 7%. For the same compound, the “increase in phosphorus uptake” value (winter wheat; [9]) was 9%, the “increase in potassium uptake” value (winter wheat; [9]) was 8% and the “increase in protein content” value (winter wheat; [9]) was 8%. The “increase in calcium uptake” value (winter wheat; [10]) was 4%, the “increase in gluten content” value (winter wheat; [10]) was 9% and the “increase in magnesium uptake” value (winter wheat; [10]) was 5%. For the same compound, the “increase in nitrogen uptake” value (winter wheat; [10]) was 14%, the “increase in phosphorus uptake” value (winter wheat; [10]) was 12% and the “increase in potassium uptake” value (winter wheat; [10]) was 6%. The “increase in protein content” value (winter wheat; [10]) was 11%, the “increase in calcium uptake” value (winter wheat; [11]) was 5% and the “increase in gluten content” value (winter wheat; [11]) was 8%. The “increase in magnesium uptake” value (winter wheat; [11]) was 6%, the “increase in nitrogen uptake” value (winter wheat; [11]) was 16% and the “increase in phosphorus uptake” value (winter wheat; [11]) was 12%. The “increase in potassium uptake” value (winter wheat; [11]) was 5%, the “increase in protein content” value (winter wheat; [11]) was 10% and the “fresh weight of aboveground part higher than control” value (winter wheat; first sampling date (beginning of shooting), first of two sprayed objects (with / without fungicide, respectively), 80 mg/L, benzothiadiazole salt 30 mg/L) was 12%. The “dry root mass higher than control” value (winter wheat; [12]) was 19%, the “fresh root mass higher than control” value (winter wheat; [12]) was 15% and the “dry weight of aboveground part higher than control” value (winter wheat; first sampling date, first of two sprayed objects, 80 mg/L, benzothiadiazole salt 30 mg/L) was 11%. The “fresh weight of aboveground part higher than control” value (winter wheat; first sampling date, second of two sprayed objects (with / without fungicide, respectively), 80 mg/L, benzothiadiazole salt 30 mg/L) was 17%, the “dry weight of aboveground part higher than control” value (winter wheat; first sampling date, second of two sprayed objects, 80 mg/L, benzothiadiazole salt 30 mg/L) was 16% and the “SPAD chlorophyll readings versus control” value (winter wheat; first term, stimulant at BBCH 32, with or without fungicide) was “significantly higher”. For the same compound, the “more aboveground biomass, BBCH 55 treatment compared to control” value (winter wheat; [13]) was 31%, the “more aboveground biomass, BBCH 55 treatment compared to plants sprayed at an earlier stage” value (winter wheat; [13]) was 12% and the “more root biomass, BBCH 55 treatment compared to control” value (winter wheat; [13]) was 25%. The “more root biomass, BBCH 55 treatment compared to plants sprayed at an earlier stage” value (winter wheat; [13]) was 17%, the “fresh and dry root weight versus other experimental facilities” value (winter wheat; second sampling date) was “comparable” and the “fresh and dry matter yields versus other experimental facilities” value (winter wheat; second sampling date, end of heading) was “comparable”. For the same compound, the SPAD chlorophyll readings (winter wheat; second term, stimulant at BBCH 32 without fungicide versus other objects) was “higher”, the “chlorophyll content of wheat leaves versus control” value (winter wheat; third term, with or without fungicide) was “significantly higher” and the “% of necrotic spots” value [6] was 99%. For the same compound, the “% of necrotic spots” value [7] was 98%.
